Measurements taken from ChEMBL document CHEMBL5303765, “Data for DCP probe BAY-7081” (2023).

Assays:
[1] = target: T1, Ferrochelatase, mitochondrial (Homo sapiens) (UniProt P22830); assay: FECHHS SGC Tm panel (DSF); settings: for ΔTm: Compound concentration 10.0 uM
T1 sequence (whole entry): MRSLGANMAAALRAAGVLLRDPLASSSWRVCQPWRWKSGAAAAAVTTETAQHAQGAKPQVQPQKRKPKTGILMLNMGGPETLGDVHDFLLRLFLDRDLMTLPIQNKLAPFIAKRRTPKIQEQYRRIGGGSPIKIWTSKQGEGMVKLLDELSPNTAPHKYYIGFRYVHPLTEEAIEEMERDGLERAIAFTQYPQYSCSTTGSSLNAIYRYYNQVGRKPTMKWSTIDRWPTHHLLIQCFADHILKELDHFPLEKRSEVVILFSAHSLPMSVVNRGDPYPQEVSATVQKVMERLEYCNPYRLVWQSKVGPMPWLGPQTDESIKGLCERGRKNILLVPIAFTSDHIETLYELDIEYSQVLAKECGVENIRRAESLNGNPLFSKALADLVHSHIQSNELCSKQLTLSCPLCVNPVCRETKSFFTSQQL

[2] = target: Serine/threonine-protein kinase Nek7 (Homo sapiens) (UniProt Q8TDX7); assay: NEK7 SGC Tm panel (DSF); settings: for ΔTm: Compound concentration 10.0 uM
[3] = target: T2, Dual specificity tyrosine-phosphorylation-regulated kinase 2 (Homo sapiens) (UniProt Q92630); assay: DYRK2 SGC Tm panel (DSF); settings: for ΔTm: Compound concentration 10.0 uM
T2 sequence (whole entry): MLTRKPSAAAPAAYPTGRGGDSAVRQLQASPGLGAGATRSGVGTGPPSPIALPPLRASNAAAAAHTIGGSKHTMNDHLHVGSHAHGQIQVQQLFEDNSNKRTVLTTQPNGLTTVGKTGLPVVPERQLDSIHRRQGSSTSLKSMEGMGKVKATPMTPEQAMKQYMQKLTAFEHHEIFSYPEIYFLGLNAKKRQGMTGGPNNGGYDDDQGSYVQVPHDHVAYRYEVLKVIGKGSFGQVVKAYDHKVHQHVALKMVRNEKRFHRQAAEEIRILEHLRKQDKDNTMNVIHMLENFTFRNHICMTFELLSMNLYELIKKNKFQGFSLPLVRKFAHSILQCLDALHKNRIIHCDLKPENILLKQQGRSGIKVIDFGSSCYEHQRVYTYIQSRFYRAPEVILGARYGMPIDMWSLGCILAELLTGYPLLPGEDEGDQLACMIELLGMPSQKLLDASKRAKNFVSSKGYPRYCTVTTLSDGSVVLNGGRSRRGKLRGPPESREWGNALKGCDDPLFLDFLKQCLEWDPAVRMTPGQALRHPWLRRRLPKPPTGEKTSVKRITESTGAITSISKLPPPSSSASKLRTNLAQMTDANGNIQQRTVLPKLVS

[4] = target: T3, Myotonin-protein kinase (Homo sapiens) (UniProt Q09013); assay: DMPK1 SGC Tm panel (DSF); settings: for ΔTm: Compound concentration 10.0 uM
T3 sequence (whole entry): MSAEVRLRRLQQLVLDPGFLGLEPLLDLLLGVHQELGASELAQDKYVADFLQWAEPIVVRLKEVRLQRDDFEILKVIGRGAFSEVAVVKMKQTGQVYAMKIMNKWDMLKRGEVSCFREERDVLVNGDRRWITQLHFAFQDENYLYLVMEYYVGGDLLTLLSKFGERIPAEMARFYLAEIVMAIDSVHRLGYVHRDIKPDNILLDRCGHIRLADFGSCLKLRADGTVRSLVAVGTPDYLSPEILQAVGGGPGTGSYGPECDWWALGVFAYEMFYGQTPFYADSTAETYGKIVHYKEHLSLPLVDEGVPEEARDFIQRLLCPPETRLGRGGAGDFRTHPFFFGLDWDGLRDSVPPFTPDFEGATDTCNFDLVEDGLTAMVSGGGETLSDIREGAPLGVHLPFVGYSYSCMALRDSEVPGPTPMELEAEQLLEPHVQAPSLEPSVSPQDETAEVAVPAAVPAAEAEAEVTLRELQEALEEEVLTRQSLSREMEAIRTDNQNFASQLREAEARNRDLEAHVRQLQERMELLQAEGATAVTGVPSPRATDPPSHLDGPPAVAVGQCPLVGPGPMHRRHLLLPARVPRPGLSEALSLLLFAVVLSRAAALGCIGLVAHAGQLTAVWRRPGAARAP

[5] = target: T4, 5-hydroxytryptamine receptor 1A (Homo sapiens) (UniProt P08908); settings: Compound concentration 10.0 uM
T4 sequence (whole entry): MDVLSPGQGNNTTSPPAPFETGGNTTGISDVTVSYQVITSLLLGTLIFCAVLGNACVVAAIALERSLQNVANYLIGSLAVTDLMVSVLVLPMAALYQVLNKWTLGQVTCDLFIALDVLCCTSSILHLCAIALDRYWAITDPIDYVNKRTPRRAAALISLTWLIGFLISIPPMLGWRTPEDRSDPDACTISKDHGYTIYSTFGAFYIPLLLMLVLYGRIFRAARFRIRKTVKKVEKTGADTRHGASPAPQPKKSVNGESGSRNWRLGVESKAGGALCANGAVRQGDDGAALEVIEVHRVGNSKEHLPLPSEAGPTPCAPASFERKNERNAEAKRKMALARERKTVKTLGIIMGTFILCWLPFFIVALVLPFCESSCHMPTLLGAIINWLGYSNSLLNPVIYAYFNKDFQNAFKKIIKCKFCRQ

[6] = target: STE20/SPS1-related proline-alanine-rich protein kinase (Homo sapiens) (UniProt Q9UEW8); assay: STK39 SGC Tm panel (DSF); settings: for ΔTm: Compound concentration 10.0 uM
[7] = target: Death-associated protein kinase 1 (Homo sapiens) (UniProt P53355); assay: DAPK1 SGC Tm panel (DSF); settings: for ΔTm: Compound concentration 10.0 uM
Death-associated protein kinase 1 (Homo sapiens), sequence (P53355 whole entry, looked up): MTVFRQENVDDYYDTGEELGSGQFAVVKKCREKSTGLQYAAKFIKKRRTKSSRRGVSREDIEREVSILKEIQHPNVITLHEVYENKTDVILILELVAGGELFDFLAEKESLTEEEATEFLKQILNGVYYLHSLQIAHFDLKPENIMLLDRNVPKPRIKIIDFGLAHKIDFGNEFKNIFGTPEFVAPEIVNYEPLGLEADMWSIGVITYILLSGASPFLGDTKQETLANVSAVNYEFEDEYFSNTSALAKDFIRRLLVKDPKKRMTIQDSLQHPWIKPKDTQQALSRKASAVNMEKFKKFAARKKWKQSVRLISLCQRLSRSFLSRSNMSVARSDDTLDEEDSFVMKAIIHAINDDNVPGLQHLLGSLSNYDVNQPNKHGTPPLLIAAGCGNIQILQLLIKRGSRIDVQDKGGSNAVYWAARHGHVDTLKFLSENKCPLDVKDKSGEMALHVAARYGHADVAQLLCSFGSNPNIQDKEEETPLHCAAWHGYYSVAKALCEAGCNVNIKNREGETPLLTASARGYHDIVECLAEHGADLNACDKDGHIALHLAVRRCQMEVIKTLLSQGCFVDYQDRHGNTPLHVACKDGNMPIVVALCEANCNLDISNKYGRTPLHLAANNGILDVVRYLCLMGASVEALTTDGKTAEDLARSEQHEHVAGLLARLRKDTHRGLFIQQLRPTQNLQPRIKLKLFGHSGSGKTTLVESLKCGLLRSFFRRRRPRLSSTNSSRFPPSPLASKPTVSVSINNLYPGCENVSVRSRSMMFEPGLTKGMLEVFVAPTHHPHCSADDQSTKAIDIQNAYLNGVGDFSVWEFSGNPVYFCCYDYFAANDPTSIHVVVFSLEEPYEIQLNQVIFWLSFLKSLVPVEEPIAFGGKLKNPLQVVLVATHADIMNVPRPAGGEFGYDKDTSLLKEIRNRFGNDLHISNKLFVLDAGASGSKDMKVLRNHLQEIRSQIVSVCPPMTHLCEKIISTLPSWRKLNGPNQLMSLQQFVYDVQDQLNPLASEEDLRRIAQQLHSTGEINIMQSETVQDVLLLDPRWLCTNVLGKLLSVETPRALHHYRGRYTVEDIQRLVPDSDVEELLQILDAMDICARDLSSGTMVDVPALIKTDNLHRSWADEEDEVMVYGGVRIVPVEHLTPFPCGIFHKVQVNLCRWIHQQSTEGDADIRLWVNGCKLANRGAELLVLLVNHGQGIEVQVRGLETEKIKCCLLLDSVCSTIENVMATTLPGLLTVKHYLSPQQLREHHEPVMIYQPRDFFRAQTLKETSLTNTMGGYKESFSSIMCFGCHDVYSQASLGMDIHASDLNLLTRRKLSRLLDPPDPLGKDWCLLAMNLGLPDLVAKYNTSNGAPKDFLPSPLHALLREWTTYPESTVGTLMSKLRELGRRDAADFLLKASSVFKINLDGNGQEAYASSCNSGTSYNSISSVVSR

Serine/threonine-protein kinase Nek7 (Homo sapiens), sequence (Q8TDX7 whole entry, looked up): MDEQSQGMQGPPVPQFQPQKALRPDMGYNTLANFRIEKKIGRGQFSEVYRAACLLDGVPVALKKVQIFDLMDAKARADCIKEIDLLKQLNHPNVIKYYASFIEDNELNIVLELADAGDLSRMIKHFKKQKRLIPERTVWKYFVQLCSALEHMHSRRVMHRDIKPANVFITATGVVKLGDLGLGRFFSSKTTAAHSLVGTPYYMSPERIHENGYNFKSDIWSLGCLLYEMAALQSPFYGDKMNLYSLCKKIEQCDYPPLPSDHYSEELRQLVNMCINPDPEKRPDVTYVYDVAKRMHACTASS

## CCC[C@H]1CNCc2c1[nH]c(=O)c(C#N)c2N1CCC2(CC1)CC2
[1]
  delta Tm Staurosporine positive control: 2.89
  ΔTm: -1.08
[2]
  delta Tm Staurosporine positive control: -0.489
  ΔTm: -0.134
[3]
  delta Tm Staurosporine positive control: 5.55
  ΔTm: -0.198
[4]
  delta Tm Staurosporine positive control: 9.38
  ΔTm: -0.0275
[5]
  inhibition: 5.13%
[6]
  delta Tm Staurosporine positive control: 9.01
  ΔTm: -0.273
[7]
  delta Tm Staurosporine positive control: 9.84
  ΔTm: 0.2

## CCC[C@@H]1CNCc2c1[nH]c(=O)c(C#N)c2N1CCC2(CC1)CC2
[1]
  delta Tm Staurosporine positive control: 2.89
  ΔTm: -1.34
[2]
  delta Tm Staurosporine positive control: -0.489
  ΔTm: -0.956
[3]
  delta Tm Staurosporine positive control: 5.55
  ΔTm: -0.189
[4]
  delta Tm Staurosporine positive control: 9.38
  ΔTm: -0.138
[5]
  inhibition: 8.63%
[6]
  delta Tm Staurosporine positive control: 9.01
  ΔTm: -0.455
[7]
  delta Tm Staurosporine positive control: 9.84
  ΔTm: -0.225
